Laboratory results published in patent US10821152B2, “Methods, agents and compositions for treatment of inflammatory conditions” (Betanien Hospital, priority 2014, dated 2020).
Non-standard residues stand in square brackets, D forms with d. Residues, ends and D or L forms follow the SMILES beside them. *: point of attachment. dPhe(4-NHCONH2) = NC(=O)Nc1ccc(C[C@@H](N)C(=O)O)cc1; Dihydroorotyl(S) = O=C1C[C@@H](C(=O)*)NC(=O)N1; dPhe(4-Cl) = N[C@H](Cc1ccc(Cl)cc1)C(=O)O; Phe(4-NH2) = Nc1ccc(C[C@H](N)C(=O)O)cc1; d2Nal = N[C@H](Cc1ccc2ccccc2c1)C(=O)O; Lys(iPr) = CC(C)NCCCC[C@H](N)C(=O)O; d3Pal = N[C@H](Cc1cccnc1)C(=O)O

Tests used:
patient with colitis = assay: Treatment of inflammatory bowel disease (fecal calprotectin, partial Mayo score); type: in vivo, human
Method: • person, diagnosed with colitis • Inflammatory bowel disease, colitis verified on colonic biopsy sample. Patients with inflammatory colitis usually have a higher incidence of autoimmune diseases. This patient also had ankylosing spondylitis. Experimental Treatment • September 2014 received first dose of Degarelix 240 mg sc. • Received Degarelix 80 mg sc approximately every two weeks thereafter. Assessment of Response • The inflammatory bowel diseases (IBD's), Crohn's disease and ulcerative colitis, are chronic relapsing, remitting disorders. The assessment of disease activity presents challenges to clinicians. Fecal biomarkers, such as fecal calprotectin, are a non-invasive method which can be used to aid managing clinicians. Calprotectin is released extracellularly in times of cell stress or damage and can be detected within feces and thus be used as a sensitive marker of intestinal inflammation. […] Fecal calprotectin levels are elevated in patients with both Crohn's disease and ulcerative colitis 1-2. There have been several studies looking at the use of fecal calprotectin to predict or monitor response to treatment. • In a study looking at 11 patients with relapsing IBD, fecal calprotectin was analysed at inclusion and after 8 weeks of treatment. Treatment was individualized medical therapy. A normalized fecal calprotectin concentration at 8 weeks predicted a complete response in 100% of patients,3 corresponding to endoscopic mucosal healing4. It has been shown that in patients with steroid induced clinical remission fecal calprotectin levels can remain elevated5-6. […] A level of <50 mg/kg is considered normal or remission for IBD. • There is no gold standard index in the measurement of colitis disease activity in clinical trials. Due to the invasive nature of endoscopies, the Mayo non-invasive colitis assessment of response score can be used to assess treatment effect of IBD in clinical trials9-11. […] Both the partial Mayo and total Mayo score are used to assess disease activity in clinical trials13. The partial Mayo score also had good discriminatory value between subjects in remission and those with active disease14. A clinical response has been defined as a 3 point or greater change in the partial Mayo score15.

[1] = test system: patient with seropositive rheumatoid arthritis; assay: Degarelix with and without Methotrexate in rheumatoid arthritis; type: in vivo, human; conditions: RA patient
Method: • person with seropositive rheumatoid arthritis with disease duration of 16 years • Fulfilled ACR 2010 classification criteria for rheumatoid arthritis Experimental Treatment and Assessment of Response • Previously failed 3 biologics (Etanercept, Actemra, and Rituximab). Last tried Rituximab November 2013, but increasing disease activity and blood tests (CRP and ESR) during the months thereafter until start of Degarelix 16 Jun. 2014. Concomitantly used stable Methotrexate 10 mg weekly since 1999. • Started Degarelix 240 mg inductions dose 16 Jun. 2014, with 80 mg every 2 weeks thereafter. • Disease activity reduced and they achieved an ACR60 response by 29 Sep. 2014 under the introduction of Degarelix and stable concomitant Methotrexate and Prednisolone. • 3 Oct. 2014 the patient's pulmonary physician stopped Methotrexate treatment due to pleural thickening, and CT imaging supporting lung fibrosis which was suspected to be due to Methotrexate. The patient had dyspnea which resolved once Methotrexate was stopped. • By 21 Nov. 2014, the patients disease activity score had increased from 5.1 (29 Sep. 14) to 5.7 (21 Nov. 2014), due to the discontinuation of Methotrexate.

[2] = test system: patient with spondyloarthritis; assay: Treatment of spondyloarthritis with Degarelix (BASDAI); type: in vivo, human
Method: • person, diagnosed with spondyloarthritis • Fulfilled the ASAS criteria for axial radiographic spondyloarthritis. Experimental Treatment • October 2014 received first dose of Degarelix 240 mg sc. • Received Degarelix 80 mg sc every two weeks thereafter. Assessment of Response Disease activity in ankylosing spondylitis/spondyloarthritis is measured by the BASDAI (Bath Ankylosing Spondylitis Disease Activity Index^1), has been extensively validated in clinical trials^2-3, and is one of the most commonly used outcome measures in clinical trials. This is a composite index that evaluates fatigue, axial and peripheral pain, stiffness and enthesopathy. Their BASDAI was at 3.8 at baseline. In October 2014 they received their first dose of Degarelix 240 mg sc. By 2 weeks, their BASDAI had reduced to 2.9, and by 8 weeks it had reduced to 1.3, remission. At 4 months, their BASDAI continues to be low at 1.5. • Response to therapy in clinical practice is defined as improvement of 2 units or 50% on a 0-10 scale of the BASDAI, and expert opinion that the treatment should be continued. Their reduction by 4 moths was 2.3 we shall continue treatment.

[3] = test system: patients with rheumatoid arthritis; conditions: human, in vivo
Description: They were not taking any therapies for osteoporosis during this period.

Q: What does the source list for `CC(=O)N[C@H](Cc1ccc2ccccc2c1)C(=O)N[C@H](Cc1ccc(Cl)cc1)C(=O)N[C@H](Cc1cccnc1)C(=O)N[C@@H](CO)C(=O)N[C@@H](Cc1ccc(NC(=O)[C@@H]2CC(=O)NC(=O)N2)cc1)C(=O)N[C@H](Cc1ccc(NC(N)=O)cc1)C(=O)N[C@@H](CC(C)C)C(=O)N[C@@H](CCCCNC(C)C)C(=O)N1CCC[C@H]1C(=O)N[C@H](C)C(N)=O` [Degarelix] (Ac-[d2Nal][dPhe(4-Cl)][d3Pal]S[Phe(4-NH2)](Dihydroorotyl(S))[dPhe(4-NHCONH2)]L[Lys(iPr)]P[dA]-NH2)?
A: Fecal calprotectin (<50 normal) (patient with colitis; 02.10.14): 48, normal mg/kg; Fecal calprotectin (<50 normal) (patient with colitis; 10.01.15): 32, normal mg/kg; Fecal calprotectin (<50 normal) (patient with colitis; 24.09.14 (started 10 Sep. 2014)): 79, high mg/kg; partial Mayo score (patient with colitis; at 12 weeks): 0; partial Mayo score (patient with colitis; baseline): 3; disease activity score ([1]; 21 Nov. 2014, Degarelix after Methotrexate stopped 3 Oct. 2014): 5.7; disease activity score ([1]; 29 Sep. 14, Degarelix with Methotrexate): 5.1; ACR response ([1]; by 29 Sep. 2014, with stable concomitant Methotrexate and Prednisolone): ACR60; BASDAI ([2]; at 4 months): 1.5; BASDAI ([2]; baseline): 3.8; BASDAI ([2]; by 2 weeks): 2.9; BASDAI ([2]; by 8 weeks (remission)): 1.3; bone mineral density in hips [3]: improved
